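Growth conditions: 96-well plates. Treatment: test compound, 48 hours, 5 concentrations. Analysis: linear interpolation between bracketing concentrations; unreached endpoints set to highest concentration. GI50 marks 50% less growth.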 Activity calls are given as the source filed them. Cut-off read from the data, not from the text of the source: active = GI50 up to about 1.1 µM and inactive = higher.

Test systems include CAKI-1; COLO 205; EKVX; M14; MDA-MB-231; NCI-H226; NCI-H460; OVCAR-4; PC-3; RXF 393; SF-268; SK-MEL-5; SK-OV-3; SNB-19; SNB-75; SR; SW-620; TK-10; U-251; UACC-62.
Common to all, as to test: NCI-60 cell line screen, 48 h

With `COc1cc(C2c3cc4c(cc3OC(NCc3ccccc3)C2C)OCO4)cc(OC)c1OC` (stereo not given), the GI50 was 0.288 µM (active) in the assay on CAKI-1; 0.252 µM (active) with COLO 205; 2.56 µM (inactive) in the assay with EKVX; 0.442 µM (active) with M14; 0.303 µM (active) with MDA-MB-231; 0.853 µM (active) with NCI-H226. Moreover, the GI50 in the assay on NCI-H460 was 0.394 µM (active); in the assay on OVCAR-4, 0.644 µM (active); in the assay with PC-3, 0.24 µM (active); with RXF 393, 0.206 µM (active); with SF-268, 0.933 µM (active); in the assay on SK-MEL-5, 0.261 µM (active). Moreover, the GI50 is 0.476 µM (active) in the assay on SK-OV-3; 0.452 µM (active) in the assay on SNB-19; 0.177 µM (active) in the assay with SNB-75; 0.241 µM (active) in the assay with SR; 0.331 µM (active) in the assay with SW-620; 20.2 µM (inactive) with TK-10. The results for the GI50 in the assay with U-251 and with UACC-62 were 0.39 µM (active) and 0.409 µM (active), respectively.

Regarding `CCCCSCc1nc2nc(Cl)c(Cl)nc2[nH]1`, the GI50 in the assay on CAKI-1 was 23.7 µM (inactive); in the assay on COLO 205, 21.3 µM (inactive); in the assay on EKVX, 33.3 µM (inactive); with M14 it was 23.8 µM (inactive); in the assay with MDA-MB-231 it was 24.6 µM (inactive); with NCI-H226, 33.7 µM (inactive). Also, the GI50 is 20.6 µM (inactive) in the assay on NCI-H460; 29.5 µM (inactive) in the assay with OVCAR-4; 31.6 µM (inactive) with PC-3; 19.4 µM (inactive) with RXF 393; 35.6 µM (inactive) with SF-268; 11.8 µM (inactive) with SK-MEL-5. Further, the GI50 in the assay with SK-OV-3 is 18.7 µM (inactive); in the assay on SNB-19, 35.3 µM (inactive); in the assay with SNB-75, 19 µM (inactive); in the assay on SR, 22 µM (inactive); with SW-620, 28.5 µM (inactive); in the assay on TK-10, 27.9 µM (inactive). For the same compound, the results for the GI50 in the assay on U-251 and with UACC-62 were 20.9 µM (inactive) and 10.5 µM (inactive), respectively.

Turning to `C/C(=N\Nc1ccccc1)C(CN(C)C)C(c1ccccc1)c1c(O)c2ccccc2oc1=O` (stereo not given), the GI50 with CAKI-1 was > 100 µM (inactive); in the assay on COLO 205 it was > 68.9 µM (inactive); in the assay with EKVX it was > 100 µM (inactive); with M14, > 100 µM (inactive); in the assay with MDA-MB-231 it was > 100 µM (inactive); in the assay with NCI-H226, > 100 µM (inactive). The GI50 in the assay on NCI-H460, in the assay with OVCAR-4, in the assay with PC-3, with RXF 393, with SF-268 and in the assay on SK-MEL-5 was > 100 µM (inactive) throughout. The GI50 was > 100 µM (inactive) in the assay on SK-OV-3; > 100 µM (inactive) in the assay on SNB-19; > 77.3 µM (inactive) in the assay on SNB-75; 85.9 µM (inactive) with SR; > 100 µM (inactive) with SW-620; > 100 µM (inactive) with TK-10. Further, the GI50 in the assay on U-251 and in the assay on UACC-62 was > 100 µM (inactive) throughout.

As to `Cc1nccn1S(=O)(=O)c1ccc(Cl)cc1`, the GI50 with CAKI-1 was 42 µM (inactive); in the assay with COLO 205, 19.8 µM (inactive); with EKVX, 31.3 µM (inactive); in the assay with M14, 41.7 µM (inactive); in the assay with MDA-MB-231 it was 31.9 µM (inactive); with NCI-H226 it was 74.8 µM (inactive). Besides, the GI50 in the assay on NCI-H460 is 41.9 µM (inactive); in the assay on OVCAR-4 it was 29.5 µM (inactive); in the assay on PC-3, 99.8 µM (inactive); in the assay on RXF 393 it was 52 µM (inactive); in the assay with SF-268, 47.9 µM (inactive); with SK-MEL-5 it was 37.4 µM (inactive). Moreover, the GI50 was 87.5 µM (inactive) with SK-OV-3; > 100 µM (inactive) in the assay on SNB-19; 57 µM (inactive) in the assay with SNB-75; 38 µM (inactive) with SR; 65.2 µM (inactive) with SW-620; 72.8 µM (inactive) with TK-10. Besides, the GI50 in the assay with U-251 was 61.1 µM (inactive); in the assay with UACC-62, 55.6 µM (inactive).

Turning to `CCN1CCC(O)(c2ccc([N+](=O)[O-])cc2)C(C(=O)c2ccc([N+](=O)[O-])cc2)C1` (stereo not given), the GI50 was 22.3 µM (inactive) in the assay on CAKI-1; 13.8 µM (inactive) in the assay on COLO 205; 18.9 µM (inactive) in the assay on EKVX; 18.1 µM (inactive) in the assay on M14; 25.8 µM (inactive) in the assay on MDA-MB-231; 26.3 µM (inactive) with NCI-H226. Also, the GI50 is 28.8 µM (inactive) in the assay on NCI-H460; 25.9 µM (inactive) with OVCAR-4; 26.6 µM (inactive) in the assay with PC-3; 14.4 µM (inactive) with RXF 393; 21 µM (inactive) with SF-268; 18.1 µM (inactive) in the assay on SK-MEL-5. The GI50 is > 100 µM (inactive) in the assay on SK-OV-3; 95.1 µM (inactive) in the assay on SNB-19; 34.5 µM (inactive) in the assay on SNB-75; 33 µM (inactive) in the assay with SR; 25.1 µM (inactive) in the assay with SW-620; 17.8 µM (inactive) with TK-10. In addition, the GI50 in the assay with U-251 was 29.2 µM (inactive); in the assay on UACC-62, 18.2 µM (inactive).

The record behind these values is ChEMBL document CHEMBL1201862, “PubChem BioAssay data set” (2004).
